Literature values, collected in patent publication US20150050358A1, “IMPLANT SUPPORT COMPOSITION AND METHODS OF USE” (REGENTS OF THE UNIVERSITY OF MINNESOTA, priority 2013, published 2015).

Settings: antibiotic solution

pH of solution: 4.5-7.0 pH
Structure (SMILES): Cc1ncc([N+](=O)[O-])n1CCO [metronidazole]
